Target: T1, estrogen receptor (Homo sapiens, UniProt P03372)
T1 construct: endogenous in cells; host or cells: ECC-1 cells
T1 sequence (P03372 1-595): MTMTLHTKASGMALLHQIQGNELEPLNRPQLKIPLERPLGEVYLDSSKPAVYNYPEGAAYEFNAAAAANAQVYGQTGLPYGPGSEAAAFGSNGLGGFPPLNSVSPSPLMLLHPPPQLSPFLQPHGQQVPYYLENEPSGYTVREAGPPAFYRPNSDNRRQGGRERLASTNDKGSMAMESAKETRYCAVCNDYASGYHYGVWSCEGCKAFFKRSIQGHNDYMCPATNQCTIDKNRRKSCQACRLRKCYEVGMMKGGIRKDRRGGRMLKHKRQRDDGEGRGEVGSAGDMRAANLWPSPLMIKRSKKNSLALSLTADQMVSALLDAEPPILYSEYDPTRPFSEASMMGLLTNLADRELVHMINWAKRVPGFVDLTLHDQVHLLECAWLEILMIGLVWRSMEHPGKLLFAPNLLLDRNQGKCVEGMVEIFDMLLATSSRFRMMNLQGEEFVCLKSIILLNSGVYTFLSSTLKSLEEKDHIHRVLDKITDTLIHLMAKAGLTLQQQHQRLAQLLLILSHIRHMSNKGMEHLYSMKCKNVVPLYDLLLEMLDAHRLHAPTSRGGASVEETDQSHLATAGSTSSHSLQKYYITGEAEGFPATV
Test: AP assay (alkaline phosphatase activity in ECC-1 cells), agonist mode (absence of E2) and antagonist mode (presence of 500 pM E2)
Type: cell-based
Conditions: 3 days, AP activity normalized to 500 pM E2 alone, agonist and antagonist mode combined
How it was run: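 ECC-1 cells in hormone-depleted medium treated with compounds for 3 days, without E2 (agonist mode) or with 500 pM E2 (antagonist mode). AP activity read at 405 nm after p-nitrophenyl phosphate substrate, 40 min at 42 °C. Signal normalized to 500 pM E2 alone.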

C[C@@H]1Cc2c([nH]c3ccccc23)[C@@H](c2ccc3oc(CN4CC(CF)C4)cc3c2)N1CC(C)(C)F [Compound I-57, (1R,3R)-1-[2-[[3-(fluoromethyl)azetidin-1-yl]methyl]benzofuran-5-yl]-2-(2-fluoro-2-methyl-propyl)-3-methyl-1,3,4,9-tetrahydropyrido[3,4-b]indole]
Activity (estrogen receptor modulation, e.g., agonism and antagonism): +++ (estrogen receptor antagonism (i) with pIC50 greater than 7.5 and at least a 10% reduction in the E2-normalized signal in the AP assay (antagonist mode); and (ii) no more than 10% increase in E2-normalized signal in the AP assay (agonist mode))

CC1CN(Cc2nc3cc([C@@H]4c5[nH]c6ccccc6c5C[C@@H](C)N4CC(C)(C)F)ccc3o2)C1 [Compound I-76, 5-[(1R,3R)-2-(2-fluoro-2-methyl-propyl)-3-methyl-1,3,4,9-tetrahydropyrido[3,4-b]indol-1-yl]-2-[(3-methylazetidin-1-yl)methyl]-1,3-benzoxazole]
Activity (estrogen receptor modulation, e.g., agonism and antagonism): +++ (estrogen receptor antagonism (i) with pIC50 greater than 7.5 and at least a 10% reduction in the E2-normalized signal in the AP assay (antagonist mode); and (ii) no more than 10% increase in E2-normalized signal in the AP assay (agonist mode))

CC1CN(Cc2cc3cc([C@@H]4c5[nH]c6ccccc6c5C[C@@H](C)N4CC(C)(C)F)ccc3[nH]2)C1 [Compound I-42, (1R,3R)-2-(2-fluoro-2-methyl-propyl)-3-methyl-1-[2-[(3-methylazetidin-1-yl)methyl]-1H-indol-5-yl]-1,3,4,9-tetrahydropyrido[3,4-b]indole]
Activity (estrogen receptor modulation, e.g., agonism and antagonism): ++ (estrogen receptor antagonism having (i) between 10% and 80% increase in the E2-normalized signal in the AP assay (agonist mode) and (ii) between 10% and 80% reduction in the E2-normalized signal in the AP assay (antagonist mode))

C[C@@H]1Cc2c([nH]c3ccccc23)[C@@H](c2ccc3[nH]c(CN4CC(N(C)C)C4)cc3c2)N1CC(C)(C)F [Compound I-99, 1-[[5-[(1R,3R)-2-(2-fluoro-2-methyl-propyl)-3-methyl-1,3,4,9-tetrahydropyrido[3,4-b]indol-1-yl]-1H-indol-2-yl]methyl]-N,N-dimethyl-azetidin-3-amine]
Activity (estrogen receptor modulation, e.g., agonism and antagonism): ++ (estrogen receptor antagonism having (i) between 10% and 80% increase in the E2-normalized signal in the AP assay (agonist mode) and (ii) between 10% and 80% reduction in the E2-normalized signal in the AP assay (antagonist mode))

C[C@@H]1Cc2c([nH]c3ccccc23)[C@@H](c2c[nH]c3cc(CC4CN(C)C4)ccc23)N1CC(C)(C)F [Compound I-30, (1R,3R)-2-(2-fluoro-2-methyl-propyl)-3-methyl-1-[6-[(1-methylazetidin-3-yl)methyl]-1H-indol-3-yl]-1,3,4,9-tetrahydropyrido[3,4-b]indole]
Activity (estrogen receptor modulation, e.g., agonism and antagonism): + (estrogen receptor agonism having (i) at least 80% increase in the E2-normalized signal in the AP assay (agonist mode) and (ii) no more than 80% reduction in the E2-normalized signal in the AP assay (antagonist mode))

CC[C@H]1CCN(Cc2cc3sc([C@@H]4c5[nH]c6ccccc6c5C[C@@H](C)N4CC(C)(C)F)cc3[nH]2)C1 [Compound I-68, 5-[[(3S)-3-ethylpyrrolidin-1-yl]methyl]-2-[(1S,3R)-2-(2-fluoro-2-methyl-propyl)-3-methyl-1,3,4,9-tetrahydropyrido[3,4-b]indol-1-yl]-4H-thieno[3,2-b]pyrrole]
Activity (estrogen receptor modulation, e.g., agonism and antagonism): + (estrogen receptor agonism having (i) at least 80% increase in the E2-normalized signal in the AP assay (agonist mode) and (ii) no more than 80% reduction in the E2-normalized signal in the AP assay (antagonist mode))

From patent publication US20260355165A1, “2,3,4,9-TETRAHYDRO-1H-PYRIDO[3,4-B]INDOLE DERIVATIVES AS ESTROGEN RECEPTOR MODULATORS FOR THE TREATMENT OF CANCER” (Olema Pharmaceuticals, Inc., priority 2022, published 2026)
